Columns and labels:
Type in all cases: cell-based
IL-1β = assay: Anti-inflammatory potential: IL-1β ELISA in keratinocytes stimulated with PMA
Protocol: Keratinocytes were inoculated in KGM2 medium. After 24 hours of incubation, the cells were pre-treated with 0.2% (dry matter) arabinogalactan for 24 hours. Next, the cells were stimulated by adding 10 μg/ml PMA (phorbol-12-myristate-13-acetate; Sigma) for 16 hours, in order to mimic inflammation.
At the end of the treatment, the cell supernatants were collected and IL-1β was assayed using ELISA kits (R&D Systems).
On the cell layers, a neutral red assay was carried out: optical density, proportional to the quantity of living cells, is read at 540 nm.
The quantity of IL-1β is expressed by living cells according to the formula: OD ELISA IL-1β/OD540.
(§1) The significance of the results was evaluated by a Student's t-test: *p<0.05, **p<0.01.

collagen I gene = assay: Preventive effect on collagen I gene expression in fibroblasts treated with hydrocortisone (hormonal environment)
Description: (§2) The quantitative real-time polymerase chain reaction (qRT-PCR) is a method that makes it possible to measure in a specific and quantitative way the expression of genes of interest by amplification. Quantification is based on the real-time monitoring of gene amplification using SYBR Green as a reporter system. SYBR Green is a molecule with fluorescent properties which is intercalated in double-stranded DNA. […]
(§3) The quantities of DNA are compared in the exponential part, the time during which the increase in the quantity of DNA is proportional to the initial quantity of the matrix. […]
(§4) At the end of the treatment of the cells, total RNA was extracted (RNeasy MiniKit) and then assayed quantitatively in chips using the Experion system (Experion RNA StdSens kit). […]
(§5) Expression of the genes of reference is analyzed in the same samples as those for which the expression of the genes of interest is evaluated in order to normalize the results.
(§6) Variation in the number of copies of the gene of interest during the treatment is then calculated according to the following formula: ΔΔCt=ΔCtcontrol−ΔCttreatment
(§7) Finally, the relative quantity or level of expression of the genes of interest normalized by the level of expression of the reference genes in the untreated and treated samples is obtained by the formula RQ=2^ΔΔCt.
as §1

collagen type III gene = assay: Gene expression of collagen III in normal fibroblasts by quantitative real-time PCR; settings: 48 hours of treatment, 0.2% dry matter arabinogalactan or 5 ng/ml TGF-β1
Description: as §2, §3, §4, §5, §6, §7, §1

[1] = system: gene coding for collagen type I; assay: Gene expression of collagen I in normal fibroblasts by quantitative real-time PCR; settings: 48-hour treatment, normalized to GAPDH, 0.2% arabinogalactan or 5 ng/ml TGF-β1
Description: as §2, §3, §4, §5, §6, §7, §1

[2] = system: normal human keratinocytes; assay: Prerequisite cutaneous tolerance: pro-inflammatory potential, interleukins 1 and 8 and TNF-α assayed in the cell supernatant; settings: 0.2% dry matter
Protocol: A. Prerequisite Cutaneous Tolerance • Inflammation: The pro-inflammatory potential of arabinogalactan was evaluated on normal human keratinocytes. Interleukins 1 and 8 as well as TNF-α, early mediators of inflammation, were assayed in the cell supernatant.

fibroblasts = assay: Study of fibroblast proliferation by the MTT method; settings: 0.2% arabinogalactan, 48 hours of treatment
Protocol: The MTT [3-(4,5-dimethylthiazol-2-yl)-2,5-diphenyltetrazolium bromide] assay is a colorimetric test which measures cell viability. MTT is a yellow water-soluble tetrazolium salt; metabolically active cells are capable of reducing it into formazan blue crystals.
At D0, the fibroblasts are inoculated in RPMI medium with 1% FCS.
At D1, the cells are treated with RPMI with 10% FCS (positive control) or with 0.2% arabinogalactan for 48 hours.
At the end of the treatment, cell viability is quantified by an MTT assay: after 3 hours of contact with MTT, the formazan crystals formed are solubilized by DMSO and the optical density, proportional to the quantity of metabolically active and thus living cells, is read at 570 nm against the blank (without cells).
as §1

CCCCCCCCCCCCCC(=O)O[C@@H]1[C@@H](C)[C@@]2(O)[C@@H](C=C(CO)C[C@]3(O)C(=O)C(C)=C[C@@H]23)[C@@H]2C(C)(C)[C@]12OC(C)=O [PMA, phorbol-12-myristate-13-acetate, reference compound]
salting out of IL-1β under stress (IL-1β; keratinocytes, 10 μg/ml PMA 16 hours): massively salt-out IL-1β

C[C@]12CCC(=O)C=C1CC[C@@H]1[C@@H]2[C@@H](O)C[C@@]2(C)[C@H]1CC[C@]2(O)C(=O)CO [hydrocortisone, reference compound]
inhibition of expression of the collagen I gene (collagen I gene; fibroblasts, 50 μM hydrocortisone, 48 hours of treatment): 57%

TGF-β: growth factor with a strong capacity to induce molecules of the extracellular matrix; used as a positive control [reference compound]
increase of expression of the collagen type III gene (collagen type III gene): 147%
increase of expression of the gene coding for collagen type I [1]: +223%

arabinogalactan
inhibition of salting out of IL-1β (OD ELISA/OD540) (IL-1β; keratinocytes pretreated 24 hours with 0.2% dry matter arabinogalactan, then 10 μg/ml PMA 16 hours): −21%
pro-inflammatory potential [2]: not pro-inflammatory
salting out of interleukins 1 and 8 or TNF-α ([2]; cell supernatant): does not lead to salting out of interleukins 1 and 8 or TNF-α
increase of expression of the collagen type III gene (collagen type III gene): +81%
increase of expression of collagen I in the presence of hydrocortisone (collagen I gene; fibroblasts pretreated 24 hours with 0.2% arabinogalactan, then arabinogalactan + 50 μM hydrocortisone 48 hours): 37%
fibroblast proliferation / cell regeneration (MTT, OD570) (fibroblasts): +20%
increase of expression of the gene coding for collagen type I [1]: +38%

From patent publication US8765198B2, “Anti-stretch mark active agent, and compositions containing same” (Laboratoires Expanscience, priority 2008, dated 2014)
